From PubChem BioAssay AID248 (DTP/NCI, 2004)
Values joined by “and” are separate entries in the source; they are usually repeats but may differ in a detail not shown here. Equal values may be shown once. Toxic doses and inconclusive results are not listed.

Test system: L1210 leukemia ip in BDF1 mice, survival T/C
Experiment: NCI In Vivo Anticancer Drug Screen. Data for tumor model L1210 Leukemia (intraperitoneal) in B6D2F1 (BDF1) mice
Conditions: endpoint: mean survival time, higher = longer survival
How it was run: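 Read-out is survival time, reported as the treated-group measurement over the vehicle-control measurement.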

[1] = dose: 100.0 mg/kg/injection, schedule: Q01DX001 (ip), vehicle: saline
[2] = dose: 200.0 mg/kg/injection, schedule: Q01DX001 (ip), vehicle: saline
[3] = dose: 100.0 mg/kg/injection, schedule: Q01DX009 (ip), vehicle: Klucel (hydroxypropylcellulose) (HPC)
[4] = dose: 200.0 mg/kg/injection, schedule: Q01DX009 (ip), vehicle: Klucel (hydroxypropylcellulose) (HPC)
[5] = dose: 400.0 mg/kg/injection, schedule: Q01DX009 (ip), vehicle: Klucel (hydroxypropylcellulose) (HPC)
[6] = dose: 100.0 mg/kg/injection, schedule: Q04DX003 (ip), vehicle: Klucel (hydroxypropylcellulose) (HPC)
[7] = dose: 200.0 mg/kg/injection, schedule: Q04DX003 (ip), vehicle: Klucel (hydroxypropylcellulose) (HPC)
[8] = dose: 400.0 mg/kg/injection, schedule: Q04DX003 (ip), vehicle: Klucel (hydroxypropylcellulose) (HPC)
[9] = dose: 100.0 mg/kg/injection, schedule: Q04DX002 (ip), vehicle: saline with Tween-80
[10] = dose: 200.0 mg/kg/injection, schedule: Q04DX002 (ip), vehicle: saline with Tween-80
[11] = dose: 100.0 mg/kg/injection, schedule: Q04DX003 (ip), vehicle: saline with Tween-80
[12] = dose: 200.0 mg/kg/injection, schedule: Q04DX003 (ip), vehicle: saline with Tween-80
[13] = dose: 400.0 mg/kg/injection, schedule: Q04DX003 (ip), vehicle: saline with Tween-80
[14] = dose: 400.0 mg/kg/injection, schedule: Q01DX001 (ip), vehicle: saline

`O=C(Nc1ccc(C2=NCCN2)cc1)Nc1cccc(NC(=O)Nc2cccc(C3=NCCN3)c2)c1` was tested, and the T/C (dose: 1.0 mg/kg/injection, schedule: Q01DX Z (ip), vehicle: carboxymethylcellulose (CMC)) was 120 % of control and 90 % of control, the T/C (dose: 2.0 mg/kg/injection, schedule: Q01DX Z (ip), vehicle: carboxymethylcellulose (CMC)) was 101 % of control and 107 % of control and the T/C (dose: 4.0 mg/kg/injection, schedule: Q01DX Z (ip), vehicle: carboxymethylcellulose (CMC)) was 113 % of control. The T/C (dose: 8.0 mg/kg/injection, schedule: Q01DX Z (ip), vehicle: carboxymethylcellulose (CMC)) was 121 % of control and 244 % of control, the T/C (dose: 8.0 mg/kg/injection, schedule: Q01DX Z (ip), vehicle: water) was 286 % of control and the T/C (dose: 16.0 mg/kg/injection, schedule: Q01DX Z (ip), vehicle: carboxymethylcellulose (CMC)) was 332 % of control. For the same compound, the T/C (dose: 16.0 mg/kg/injection, schedule: Q01DX Z (ip), vehicle: water) was 172 % of control, the T/C (dose: 31.0 mg/kg/injection, schedule: Q01DX Z (oral), vehicle: water) was 104 % of control and the T/C (dose: 62.0 mg/kg/injection, schedule: Q01DX Z (oral), vehicle: water) was 112 % of control. For the same compound, the T/C (dose: 125.0 mg/kg/injection, schedule: Q01DX Z (oral), vehicle: water) was 104 % of control and the T/C (dose: 250.0 mg/kg/injection, schedule: Q01DX Z (oral), vehicle: water) was 102 % of control.
With `CCCCCCCCCCCCCCCC(=O)N(CC)CC` the T/C (dose: 100.0 mg/kg/injection, schedule: Q01DX001 (ip), vehicle: carboxymethylcellulose (CMC)) was 104 % of control, the T/C (dose: 100.0 mg/kg/injection, schedule: Q01DX009 (ip), vehicle: carboxymethylcellulose (CMC)) was 98 % of control and 104 % of control and the T/C (dose: 100.0 mg/kg/injection, schedule: Q04DX003 (ip), vehicle: carboxymethylcellulose (CMC)) was 96 % of control. For the same compound, the T/C (dose: 200.0 mg/kg/injection, schedule: Q01DX001 (ip), vehicle: carboxymethylcellulose (CMC)) was 96 % of control, the T/C (dose: 200.0 mg/kg/injection, schedule: Q01DX009 (ip), vehicle: carboxymethylcellulose (CMC)) was 96 % of control and 102 % of control and the T/C (dose: 200.0 mg/kg/injection, schedule: Q04DX003 (ip), vehicle: carboxymethylcellulose (CMC)) was 92 % of control. For the same compound, the T/C (dose: 400.0 mg/kg/injection, schedule: Q01DX001 (ip), vehicle: carboxymethylcellulose (CMC)) was 95 % of control, the T/C (dose: 400.0 mg/kg/injection, schedule: Q01DX009 (ip), vehicle: carboxymethylcellulose (CMC)) was 96 % of control and 89 % of control and the T/C (dose: 400.0 mg/kg/injection, schedule: Q04DX003 (ip), vehicle: carboxymethylcellulose (CMC)) was 94 % of control.
In the case of `O=C(Nc1ccc(S(=O)(=O)Nc2ccc(N=Nc3ccc(S(=O)(=O)Nc4nccs4)cc3)cc2)cc1)C(SC1=NC=NC2=NC=NC21)SC1=NC=NC2=NC=NC21` (centres undefined), the T/C (dose: 75.0 mg/kg/injection, schedule: Q04DX003 (ip), vehicle: saline) is reported as 100 % of control, the T/C (dose: 150.0 mg/kg/injection, schedule: Q04DX003 (ip), vehicle: saline) is reported as 96 % of control and the T/C (dose: 300.0 mg/kg/injection, schedule: Q04DX003 (ip), vehicle: saline) is reported as 98 % of control.
With `COC1=C(N)C(=O)C(OC)=C(N)C1=O` the T/C [1] was 94 % of control and the T/C [2] was 97 % of control.
`O=[N+]([O-])c1cc(COc2ccc(Cl)c(Cl)c2)ccc1Cl` was tested, and the T/C [3] was 95 % of control, the T/C (dose: 100.0 mg/kg/injection, schedule: Q04DX002 (ip), vehicle: Klucel (hydroxypropylcellulose) (HPC)) was 97 % of control and 98 % of control and 102 % of control and the T/C [4] was 93 % of control. For the same compound, the T/C (dose: 200.0 mg/kg/injection, schedule: Q04DX002 (ip), vehicle: Klucel (hydroxypropylcellulose) (HPC)) was 96 % of control and 97 % of control and 110 % of control, the T/C (dose: 200.0 mg/kg/injection, schedule: Q04DX002 (ip), vehicle: saline) was 102 % of control and the T/C [5] was 96 % of control. The T/C (dose: 400.0 mg/kg/injection, schedule: Q04DX002 (ip), vehicle: Klucel (hydroxypropylcellulose) (HPC)) was 93 % of control and 99 % of control and 103 % of control and the T/C (dose: 400.0 mg/kg/injection, schedule: Q04DX002 (ip), vehicle: saline) was 97 % of control.
With `Cc1ccc(S(=O)(=O)N2CCOCCOCCOc3ccc4ccccc4c3-c3c(ccc4ccccc34)OCCOCC2)cc1` the T/C (dose: 100.0 mg/kg/injection, schedule: Q01DX001 (ip), vehicle: saline with Tween-80) was 95 % of control, the T/C (dose: 200.0 mg/kg/injection, schedule: Q01DX001 (ip), vehicle: saline with Tween-80) was 88 % of control and the T/C (dose: 400.0 mg/kg/injection, schedule: Q01DX001 (ip), vehicle: saline with Tween-80) was 95 % of control.
With `Cc1c(Cl)cccc1NC(=O)COc1ccc(Cl)cc1` the T/C [3] was 110 % of control, the T/C [6] was 93 % of control and the T/C [4] was 94 % of control. The T/C [7] was 91 % of control, the T/C [5] was 95 % of control and the T/C [8] was 91 % of control.
With `O=C(O)CNCCN1CC(=O)NC1=S` the T/C [9] was 107 % of control, the T/C [10] was 92 % of control and the T/C (dose: 400.0 mg/kg/injection, schedule: Q04DX002 (ip), vehicle: saline with Tween-80) was 90 % of control.
In the case of `CC1=C(Br)C(=O)C(C)=C(Br)C1=O`, the T/C (dose: 25.0 mg/kg/injection, schedule: Q04DX003 (ip), vehicle: other) is reported as 95 % of control, the T/C (dose: 50.0 mg/kg/injection, schedule: Q04DX003 (ip), vehicle: other) is reported as 87 % of control and the T/C (dose: 100.0 mg/kg/injection, schedule: Q04DX003 (ip), vehicle: other) is reported as 100 % of control.
`CC(=O)C(Cc1ccc(CC(C(C)=O)C(C)=O)cc1)C(C)=O` was tested, and the T/C [11] was 100 % of control, the T/C [12] was 91 % of control and the T/C [13] was 100 % of control.
`COC(=O)C1CC23CCCC12CC3` (centres undefined) was tested, and the T/C (dose: 50.0 mg/kg/injection, schedule: Q04DX002 (ip), vehicle: saline with Tween-80) was 92 % of control, the T/C [9] was 103 % of control and the T/C [10] was 92 % of control.
With `C(C=C(c1ccccc1)c1ccccc1)=C(c1ccccc1)c1ccccc1` the T/C [11] was 97 % of control, the T/C [12] was 90 % of control and the T/C [13] was 92 % of control.
With `CC(C)CC(CC(C)C)NCCOC(=O)c1ccc(N)cc1` the T/C (dose: 75.0 mg/kg/injection, schedule: Q01DX001 (ip), vehicle: other) was 106 % of control and the T/C (dose: 150.0 mg/kg/injection, schedule: Q01DX001 (ip), vehicle: other) was 103 % of control.
In the case of `O=C1NCN(c2ccccc2)C12CCN(Cc1nc3cc([N+](=O)[O-])ccc3n1-c1ccccc1)CC2`, the T/C (dose: 100.0 mg/kg/injection, schedule: Q01DX001 (ip), vehicle: Klucel (hydroxypropylcellulose) (HPC)) is reported as 86 % of control, the T/C (dose: 200.0 mg/kg/injection, schedule: Q01DX001 (ip), vehicle: Klucel (hydroxypropylcellulose) (HPC)) is reported as 93 % of control and the T/C (dose: 400.0 mg/kg/injection, schedule: Q01DX001 (ip), vehicle: Klucel (hydroxypropylcellulose) (HPC)) is reported as 99 % of control.
In the case of `CS(=O)(=O)OCCN(CCOS(C)(=O)=O)c1cccc(C(F)(F)F)c1`, the T/C (dose: 5.0 mg/kg/injection, schedule: Q01DX001 (ip), vehicle: saline) is reported as 96 % of control, the T/C (dose: 10.0 mg/kg/injection, schedule: Q01DX001 (ip), vehicle: saline) is reported as 100 % of control and the T/C (dose: 11.0 mg/kg/injection, schedule: Q01DX015 (ip), vehicle: saline) is reported as 101 % of control. The T/C (dose: 17.0 mg/kg/injection, schedule: Q01DX015 (ip), vehicle: saline) was 110 % of control, the T/C (dose: 20.0 mg/kg/injection, schedule: Q01DX001 (ip), vehicle: saline) was 102 % of control and the T/C (dose: 25.0 mg/kg/injection, schedule: Q01DX015 (ip), vehicle: saline) was 116 % of control. For the same compound, the T/C (dose: 50.0 mg/kg/injection, schedule: Q01DX001 (ip), vehicle: saline) was 124 % of control, the T/C [1] was 124 % of control and the T/C [2] was 120 % of control. For the same compound, the T/C [14] was 86 % of control.
For `CCCCCCCCCCC(=O)OCC#CC#CCOC(=O)CCCCCCCCCC`, the T/C [3] was 97 % of control, the T/C [6] was 103 % of control and the T/C [4] was 98 % of control. The T/C [7] was 92 % of control, the T/C [5] was 101 % of control and the T/C [8] was 91 % of control.
In the case of `Nc1ncnc2scnc12`, the T/C [1] is reported as 102 % of control, the T/C [2] is reported as 99 % of control and the T/C [14] is reported as 100 % of control.
In the case of `Cc1cc(=O)n(-c2ccccc2)cn1`, the T/C [6] is reported as 98 % of control, the T/C [7] is reported as 89 % of control and the T/C [8] is reported as 96 % of control.
